Reference: patent US5866700A, “Solid-phase synthesis of oligoribonucleotides” (Hoechst Aktiengesellschaft, priority 1993, dated 1999)

experiment: Stability test: half-life for deprotection in 0.05N HCl/MeOH (Table 1); assay type: physicochemical; conditions: 0.05N HCl/MeOH (1:2), 30 mmolar solution, 20° C., pH 2.0; values +/- 10%
Experimental: (§1) To test the stability, the following uridine derivatives were incubated in 0.05N HCl/MeOH (1:2), 30 mmolar solution, 20° C., pH 2.0 (Table 1) or in 80% acetic acid, 30 mmolar solution, 20° C. (Table 2) and the half-life for deprotection was determined: […]

Structure (SMILES)	t1/2 (half-life for deprotection)
CC(OCc1ccc([N+](=O)[O-])cc1)O[C@@H]1[C@H](O)[C@@H](CO)O[C@H]1n1ccc(=O)[nH]c1=O (stereo partly shown)	1960 min
COc1ccc(COC(C)O[C@@H]2[C@H](O)[C@@H](CO)O[C@H]2n2ccc(=O)[nH]c2=O)cc1 (stereo partly shown)	73 min
CC(OCCc1ccc([N+](=O)[O-])cc1[N+](=O)[O-])O[C@@H]1[C@H](O)[C@@H](CO)O[C@H]1n1ccc(=O)[nH]c1=O (stereo partly shown)	approx. 1200 min
CC(OCc1ccc([N+](=O)[O-])cc1[N+](=O)[O-])O[C@@H]1[C@H](O)[C@@H](CO)O[C@H]1n1ccc(=O)[nH]c1=O (stereo partly shown)	approx. 14000 min
CC(OCC[N+](=O)[O-])O[C@@H]1[C@H](O)[C@@H](CO)O[C@H]1n1ccc(=O)[nH]c1=O (stereo partly shown) [CH2CH2NO2]	4030 min
CC(OCCC#N)O[C@@H]1[C@H](O)[C@@H](CO)O[C@H]1n1ccc(=O)[nH]c1=O (stereo partly shown) [CH2 CH2CN]	3370 min
COc1ccc(COC(C)O[C@@H]2[C@H](O)[C@@H](CO)O[C@H]2n2ccc(=O)[nH]c2=O)cc1OC (stereo partly shown)	82 min

The next lines start with the values.

t1/2 (half-life for deprotection)	Structure (SMILES)
175 min	CC(OCc1ccccc1)O[C@@H]1[C@H](O)[C@@H](CO)O[C@H]1n1ccc(=O)[nH]c1=O (stereo partly shown) [drawing 52]
3120 min	CC(OCCS(C)(=O)=O)O[C@@H]1[C@H](O)[C@@H](CO)O[C@H]1n1ccc(=O)[nH]c1=O (stereo partly shown)
222 min	CC(OCCc1ccc([N+](=O)[O-])cc1)O[C@@H]1[C@H](O)[C@@H](CO)O[C@H]1n1ccc(=O)[nH]c1=O (stereo partly shown)
840 min	CC(OCCN1C(=O)c2ccccc2C1=O)O[C@@H]1[C@H](O)[C@@H](CO)O[C@H]1n1ccc(=O)[nH]c1=O (stereo partly shown)
620 min	CC(OCCCl)O[C@@H]1[C@H](O)[C@@H](CO)O[C@H]1n1ccc(=O)[nH]c1=O (stereo partly shown) [CH2CH2Cl]
3120 min	CC(OCCS(=O)(=O)c1ccccc1)O[C@@H]1[C@H](O)[C@@H](CO)O[C@H]1n1ccc(=O)[nH]c1=O (stereo partly shown)
2240 min	CC(OCc1ccccc1[N+](=O)[O-])O[C@@H]1[C@H](O)[C@@H](CO)O[C@H]1n1ccc(=O)[nH]c1=O (stereo partly shown)
230 min	CC(OCCSc1ccccc1)O[C@@H]1[C@H](O)[C@@H](CO)O[C@H]1n1ccc(=O)[nH]c1=O (stereo partly shown)

experiment: Stability test: half-life for deprotection in 80% acetic acid (Table 2); assay type: physicochemical; conditions: 30 mmolar solution, 20° C., Values +/- 5%
Experimental: as §1

Structure (SMILES)	t1/2 (half-life for deprotection) [min]
CC(OCc1cc(Cl)c(OC(=O)OCCc2ccc([N+](=O)[O-])cc2)cc1Cl)O[C@@H]1[C@H](O)[C@@H](CO)O[C@H]1n1ccc(=O)[nH]c1=O (stereo partly shown)	1300
CC(OCc1ccc(O)c(F)c1)O[C@@H]1[C@H](O)[C@@H](CO)O[C@H]1n1ccc(=O)[nH]c1=O (stereo partly shown)	48
CC(OCc1ccc(O)c(Cl)c1)O[C@@H]1[C@H](O)[C@@H](CO)O[C@H]1n1ccc(=O)[nH]c1=O (stereo partly shown)	55
CC(OCc1cc(Cl)c(OC(=O)C(C)(C)C)cc1Cl)O[C@@H]1[C@H](O)[C@@H](CO)O[C@H]1n1ccc(=O)[nH]c1=O (stereo partly shown)	1355
CC(OCc1cc(Cl)c(O)cc1Cl)O[C@@H]1[C@H](O)[C@@H](CO)O[C@H]1n1ccc(=O)[nH]c1=O (stereo partly shown)	250
CC(OCc1ccc(OC(=O)OCCc2ccc([N+](=O)[O-])cc2)cc1)O[C@@H]1[C@H](O)[C@@H](CO)O[C@H]1n1ccc(=O)[nH]c1=O (stereo partly shown)	104
CC(OCc1ccc(OC(=O)OCCc2ccc([N+](=O)[O-])cc2)c(F)c1)O[C@@H]1[C@H](O)[C@@H](CO)O[C@H]1n1ccc(=O)[nH]c1=O (stereo partly shown)	305

Next, values leading:

t1/2 (half-life for deprotection) [min]	Structure (SMILES)
1128	CC(OCc1c(Cl)cccc1Cl)O[C@@H]1[C@H](O)[C@@H](CO)O[C@H]1n1ccc(=O)[nH]c1=O (stereo partly shown)
21	CC(OCc1ccc(O)cc1)O[C@@H]1[C@H](O)[C@@H](CO)O[C@H]1n1ccc(=O)[nH]c1=O (stereo partly shown)
66	CC(OCc1ccccc1)O[C@@H]1[C@H](O)[C@@H](CO)O[C@H]1n1ccc(=O)[nH]c1=O (stereo partly shown) [drawing 64]
